# Patent publication US6852503B1, “Compositions and methods for utilizing mixed substrate solutions of luminols and dioxetanes” (Pierce Biotechnology, Inc., priority 2001, dated 2005)
# How the values were obtained:
# alkaline phosphatase = alkaline phosphatase (Bos taurus, UniProt P19111); assay: Effect of peroxidase enhancers on observed alkaline phosphatase activity in dioxetane formulation containing PBTBQ; assay type: biochemical; settings: for Response, Percent: 33.3 pg alkaline phosphatase, 30 minutes, net signal relative to control solution (CDP-Star plus Nitroblock II) set to 100%; for enhancement of the observed phosphatase activity: relative to control solution
# Chain of alkaline phosphatase (P19111 20-506 limits assumed): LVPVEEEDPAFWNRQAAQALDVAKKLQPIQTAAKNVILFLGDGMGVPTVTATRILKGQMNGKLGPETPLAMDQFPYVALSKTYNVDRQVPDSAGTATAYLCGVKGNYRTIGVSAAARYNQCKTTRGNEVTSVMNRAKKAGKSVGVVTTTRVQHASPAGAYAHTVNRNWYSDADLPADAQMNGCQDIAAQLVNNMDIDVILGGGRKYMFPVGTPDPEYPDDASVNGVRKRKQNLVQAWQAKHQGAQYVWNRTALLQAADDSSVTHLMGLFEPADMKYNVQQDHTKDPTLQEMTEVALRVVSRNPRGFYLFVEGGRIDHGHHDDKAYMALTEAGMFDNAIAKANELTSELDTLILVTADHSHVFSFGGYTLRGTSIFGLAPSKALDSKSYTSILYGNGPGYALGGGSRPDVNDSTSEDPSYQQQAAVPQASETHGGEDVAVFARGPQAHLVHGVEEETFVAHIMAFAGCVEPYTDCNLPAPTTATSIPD
# Protocol: (§1) A variety of known enhancers of peroxidase activity were tested for their effect on the observed alkaline phosphatase activity in a dioxetane formulation containing the PBTBQ alkaline phosphatase enhancement agent. […] 10 μl of TBS served as a background control. 40 mM stock solutions as ws-PT, ws-PT-N-C4-S-C2Cl, and ws-PT Plus (CP-Br) were prepared in water. A 50 mM solution of DMAP was prepared in water. A 20 mM ws-PT Plus (MPA Cl) was prepared in water. 40 mM solutions of MPT and CPPT were prepared in methanol. (See Table 3 for acronym identification of these peroxidase enhancers, some of which are substantially water-soluble(ws).) The control solution was prepared by mixing 2.85 ml of CDP-Star RTU (Tropix Product No. MS100R) with 0.15 ml of NitroBlock II (Tropix Product No. LNX200). For the test solutions, 112 μl of the peroxidase enhancer stock solutions were added to 3 ml of the control solution in the case of the ws-PT, MPT, ws-PT-NC4S, ws-PT-Plus (CP-Br), or CPPT; for the ws-PT-Plus (MPS-C) 224 μl of the stock was added to 3 ml of the control solution; for the DMAP, 150 μl of the stock was added to 3 ml of the control solution; for the test solution containing DMAP and ws-PT, 150 μl of the DMAP stock and 112 μl of the ws-PT stock was added to 3 ml of the control solution.
# To the wells of the microplate containing the alkaline phosphatase aliquots, the control and test formulations were added at 100 μl per well, mixed for approximately one minute, and allowed to react for 30 minutes at which time the chemiluminescent signal was measured on a Berthold EGG Luminometer using a 0.1 second integration time. Table 3 illustrates the relative signal intensities obtained using the response from the control solution set to 100%. The net signal of each solution (background subtracted) was used for these calculations. […] Consequently, the relative response factors for alkaline phosphatase and peroxidase activity to each other in the present invention can be modulated by the choice of the peroxidase enhancer used in the substrate solution formulation of this invention.
# [1] = Visual appearance (flocculation) of test solutions; assay type: physicochemical; settings: enhancer stock added to CDP-Star RTU/NitroBlock II control solution
# Protocol: as §1
SMILES,"Response, Percent (alkaline phosphatase)",appearance of test solution [1],enhancement of the observed phosphatase activity (alkaline phosphatase)
"O=C(O)CCCN1c2ccccc2Sc2ccccc21 [CPPT, 4-(phenothiazin-10-yl)butanoic acid]",104%,–,–
"CNC.c1ccncc1 [DMAP, Dimethylamine pyridine]",99%,–,–
"CN1c2ccccc2Sc2ccccc21 [MPT, 10-methyl-10H-phenothiazine]",198%,visible flocculation,significant enhancement
"C[N+](C)(C)CCCN1c2ccccc2Sc2ccc(Cl)cc21.[Br-] [ws-PT Plus (CP—Br^−), [3-(2-chlorophenothiazin-10-yl)-propyl]trimethyl-ammonium bromide]",85%,–,–
"C[N+](C)(C)CCCN1c2ccccc2Sc2ccccc21.[Cl-] [ws-PT Plus (MPA^+Cl^−), Trimethyl-(3-phenothiazin-10-yl-propyl)ammonium chloride]",70%,–,–
"O=S(=O)([O-])CCCN1c2ccccc2Sc2ccccc21.[Na+] [ws-PT, Sodium (3-phenothiazine-10-yl)-propane-1-sulfonate]",207%,visible flocculation,significant enhancement
"O=S(=O)([O-])CCCCN1c2ccccc2Sc2ccc(Cl)cc21.[Na+] [ws-PT—N—C4S—C2—Cl, Sodium 4-(2-chlorophenothiazin-10-yl)butane-1-sulfonate]",218%,–,significant enhancement
